# Experiments:
# [1] = tested on: MDA-MB-231 (breast adenocarcinoma); assay: MTT cytotoxicity assay, MDA-MB-231 cells; format: cell-based, human; settings: Table 2; cisplatin-resistant cell line; 72 h exposure; read-out: IC50 MDA-M8-231 breast adenocarcinoma
# [2] = Variable-temperature 1H NMR stability in DMSO; format: physicochemical; settings: intact up to 75° C.
# Method: Two rhenium(v) oxo complexes (1 and 2; see Scheme 1) were prepared by reacting ReOCI3)2 with […] of the corresponding bidentate ligand in methanol. The complexes were isolated in reasonable yields as pale green solids and fully characterized by NMR and IR spectroscopy, ESI-MS spectrometry, and elemental analysis.
# Synthesis and Characterization. The rhenium(V) oxo complexes 1 and 2 (see Scheme 1) were prepared by the reaction of [ReOCl3(PPh3)2] with 1.5 equiv of the corresponding bidentate ligand in methanol (Scheme 1). The complexes were isolated in reasonable yields as pale green solids and fully characterized by NMR and IR spectroscopy and ESI mass spectrometry. The purity of the complexes was confirmed by elemental analysis.
# [3] = tested on: HT-29; assay: Cytotoxicity in the presence of necrostatin-1, HT-29 cells; format: cell-based, human; settings: necrostatin-1 60 μM, t test p<0.05
# Method: In order to determine the cell-killing mechanism of 1 and 2, cytotoxicity studies in the presence of apoptosis and necrosis inhibitors were conducted. […] The possibility that 1 and 2 induce necroptosis was then investigated. Necroptosis is a well-regulated mode of cell death that is different from unregulated necrosis and apoptosis. Unlike unregulated necrosis, which can be induced by H2O2 or heat, necroptosis generally involved the interaction of protein kinases, RIP1 and RIP3, to initiate cell disintegration. This process can be blocked by necrostatin-1, a potent RIP1 kinase inhibitor. To determine whether 1 and 2 induced necroptosis and/or uncontrolled necrosis, cytotoxicity studies were conducted in the presence of necrostatin-1 (60 μM) and IM-54 (10 μM), an inhibitor of H2O2-induced necrosis. […] Therefore, 1- and 2-induced cell death relies on RIP1-RIP3 complex formation and not on the expression levels of the individual protein kinases. RIP1 can also form a cytosolic complex with Fas-associated death domain (FADD) and caspase 8, known as a ripoptosome, to initiate apoptosis (through caspase 8 cleavage).
# Cytotoxicity MTT Assay. […] Cells (2×10^3 cells/well) were seeded in a 96-well plate. […] The absorbance of the solution wells was read at 550 nm. Absorbance values were normalized to DMSO-containing control wells and plotted as the concentration of test compound versus % cell viability. […]
# [4] = tested on: A549 cells; assay: Hoechst 33258/propidium iodide double staining, fluorescence microscopy; format: cell-based, human; settings: for nuclear staining, Hoechst 33258 and PI uptake: 20 μM for 12 h; for PI staining on co-incubation with necrostatin-1: necrostatin-1 60 μM for 12 h
# Method: Intracellular ROS production and mitochondrial membrane depletion contribute to necroptosis. Cells undergoing necroptosis display necrosis-like morphological features such as loss of cell membrane integrity, increase in organelle and cell volume (oncosis), and intact nuclear membrane. To further test whether 1- and 2-treatment can trigger necroptosis, Hoechst 33258/propidium iodide (PI) double staining was carried out to determine nuclear membrane morphology and integrity. Hoechst 33258 is a DNA minor groove binder that is routinely used to visualize the nucleus without the need for cell permeabilization. When used without cell permeabilization agents, PI stains the nuclei of necrotic cells. Early-stage apoptotic and normal cells maintain cell membrane integrity and thus are not stained by PI. A549 cells were treated with 1 and 2 (20 μM for 12 h), incubated with Hoechst 33258 and PI, and imaged using a fluorescence microscope.
# Fluorescence Microscopy. A549 cells (1.5×10^6 cells/well) were incubated with and without 1 and 2 (20 μM) for 12 h. The media were then removed, and the cells were washed with additional media (2 mL×2). After incubation of the cells with more media containing Hoechst 33258 (7.5 μM) and PI (5 μM), the nuclear regions were imaged using a fluorescence microscope. Fluorescence imaging experiments were performed using a Zeiss Axiovert 200M inverted epifluorscence microscope with a Hamamatsu EM-CCD digital camera C9100 and a MS200 XY Piezo Z stage (Applied Scientific Instruments, Inc.). An X-Cite 120 metal halide lamp (EXFO) was used as the light source. Zeiss standard filter set 49 was employed for imaging the nuclear region. The microscope was operated with Volocity software (version 6.01, Improvision). The exposure time for acquisition of fluorescence images was kept constant for each series of images at each channel.
# [5] = tested on: A549 cells; assay: Cell cycle analysis, DNA-flow cytometry; format: cell-based, human; settings: 2 μM
# Method: Cell Cycle Analysis. To gain a more complete understanding of the cellular response evoked, DNA-flow cytometric studies were conducted to determine the effect of 1 and 2 on the cell cycle. A549 cells were treated with 1 or 2 (2 μM), and the cell cycle was determined over the course of 72 h. […] Upon further incubation (72 h), large populations of cell debris were detected (32%), indicative of cell death. […] G1-phase cell cycle arrest followed by immediate cell death is characteristic of programmed necrosis.
# Cell Cycle. In order to monitor the cell cycle, flow cytometry studies were carried out. A549 cells (1.5×10^6 cells/well) grown in six-well plates were incubated with and without the test compounds for 24, 48, and 72 h at 37° C. Cells were harvested from adherent cultures by trypsinization and combined with all detached cells from the incubation medium to assess total cell viability. Following centrifugation at 1000 rpm for 5 min, cells were washed with PBS and then fixed with 70% ethanol in PBS. Fixed cells were collected by centrifugation at 2500 rpm for 3 min, washed with PBS, and centrifuged as before. Cellular pellets were resuspended in 50 μg/mL PI (Sigma) in PBS for nucleic acids staining and treated with 100 µg/mL RNaseA (Sigma). DNA content was measured on a FACSCalibur-HTS flow cytometer (BD Biosciences) using laser excitation at 488 nm, and 20 000 events per sample were acquired. Cell cycle profiles were analyzed using the ModFit software.
Compound,IC50 [1] [µM],stability in DMSO [2],"effect of co-incubation with necrostatin-1 on toxicity, HT-29 [3]","nuclear staining, Hoechst 33258 and PI uptake [4]",PI staining on co-incubation with necrostatin-1 [4],effect on cell cycle after 24 h [5],effect on cell cycle after 48 h ([5]; 48 h),"population of cell debris, 72 h [5] [%]","population of cell debris, 48 h ([5]; 48 h) [%]"
"C[O][Re](=[O])([Cl])[Cl].c1ccc(-c2ccnc3c2ccc2c(-c4ccccc4)ccnc23)cc1 [Compound 1, [ReO(OMe)(4,7-diphenyl-1,10-phenanthroline)-Cl2]]",0.475 ± 0.161,stable,markedly decreased the toxicity,pink nuclei,unstained by PI,stalled the cell cycle at the G1 phase,remained stalled at the G1 phase,32,
"C[O][Re-2]1(=[O])([Cl])([Cl])[n+]2cc(C)c(C)c3ccc4c(C)c(C)c[n+]1c4c32 [Compound 2, [ReO(OMe)(3,4,7,8-tetramethyl-1,10-phenanthroline)Cl2]]",1.74 ± 0.275,stable,markedly decreased the toxicity,pink nuclei,unstained by PI,stalled the cell cycle at the G1 phase,,38,26
